This is an account of results in paper PMC6175941, “Hydrophobic alkyl chains substituted to the 8-position of cyclic nucleotides enhance activation of CNG and HCN channels by an intricate enthalpy - entropy compensation” (Scientific Reports, 2018).

The target in assay [1] is T1, homotetrameric CNGA2 channels (Rattus norvegicus, UniProt Q00195).
T1 construct: expressed in transfected cells; host or cells: Xenopus laevis oocytes injected with cRNA; inside-out patches
T1 sequence (Q00195 1-664): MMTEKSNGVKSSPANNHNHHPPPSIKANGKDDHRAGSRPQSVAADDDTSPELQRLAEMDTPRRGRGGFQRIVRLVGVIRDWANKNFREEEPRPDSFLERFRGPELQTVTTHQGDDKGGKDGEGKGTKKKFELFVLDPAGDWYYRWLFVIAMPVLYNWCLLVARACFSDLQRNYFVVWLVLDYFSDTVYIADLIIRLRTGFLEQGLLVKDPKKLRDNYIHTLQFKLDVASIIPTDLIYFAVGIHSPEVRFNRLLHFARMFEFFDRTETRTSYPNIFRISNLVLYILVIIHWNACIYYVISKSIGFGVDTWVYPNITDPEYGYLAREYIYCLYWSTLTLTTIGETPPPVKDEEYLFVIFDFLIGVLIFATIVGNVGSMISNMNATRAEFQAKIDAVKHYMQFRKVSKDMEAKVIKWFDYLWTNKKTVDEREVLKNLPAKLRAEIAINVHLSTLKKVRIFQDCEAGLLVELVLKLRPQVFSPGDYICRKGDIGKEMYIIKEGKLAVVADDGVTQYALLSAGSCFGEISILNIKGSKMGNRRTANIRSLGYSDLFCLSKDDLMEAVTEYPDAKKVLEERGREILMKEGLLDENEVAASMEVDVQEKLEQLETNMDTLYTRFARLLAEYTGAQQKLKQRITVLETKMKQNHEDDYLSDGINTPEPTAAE
The experiment in a line: Concentration-activation relationship of homotetrameric CNGA2 channels, inside-out patches of Xenopus oocytes. The class given is cell-based. The protocol:
(§1) For each cNMP derivative a complete concentration-activation relationship was recorded, and the data points were fitted with the Hill equation (equation 1) yielding the concentration of half maximum activation (EC50) and the Hill coefficient H (Fig. 1b,c).
(§2) The subunits CNGA2 (accession No. AF126808), CNGA4 (accession No. U12623) and CNGB1b (accession No. AF068572) of rat olfactory channels as well as mouse HCN2 channels (NM008226) were subcloned in front of the T7 promoter of pGEMHEnew. The respective cRNAs were produced by using the mMESSAGE mMACHINE T7 Kit (Ambion, Austin, TX).
(§3) Oocytes at stages IV and V were injected with 50–130 ng of cRNA encoding either CNGA2, CNGA2:CNGA4:CNGB1b (2:1:1 ratio) or HCN2 channels either manually of or by means of an injection robot (RoboInject®). The injected oocytes were incubated at 18 °C for up to 6 days in Barth’s solution containing (in mM) 84 NaCl, 1 KCl, 2.4 NaHCO3, 0.82 MgSO4, 0.41 CaCl2, 0.33 Ca(NO3)2, 7.5 TRIS, cefuroxime (4.0 µg × ml^−1), and penicillin/streptomycin (100 µg × ml^−1), pH 7.4.
(§4) Macroscopic currents were recorded from inside-out patches of the oocytes by using standard patch-clamp techniques. The patch pipettes were pulled from quartz tubing (P-2000, Sutter Instrument, Novato, USA) with an outer and inner diameter of 1.0 and 0.7 mm (VITROCOM, New Jersey, USA). The corresponding pipette resistance was 0.9–2.3 MΩ. The bath and pipette solution contained (in mM): 150 KCl, 1 EGTA, 5 Hepes (pH 7.4 with KOH) for CNG measurements. For HCN measurements the bath solution contained 100 mM KCl, 10 mM EGTA, 10 mM HEPES (pH 7.2) and 120 mM KCl, 10 mM HEPES, and 1.0 mM CaCl2 (pH 7.2) in the pipette. Recording was carried out at room temperature using an Axopatch 200B amplifier (Axon Instruments, Foster City, CA). Electrophysiology was controlled by the Patchmaster-software (HEKA Elektronik Dr. Schulze GmbH, Lambrecht, Germany). The sampling rate was 5 kHz and the filter implemented in the amplifier (4-pole Bessel) was set to 2 kHz. Measurements in HCN2 channels were generally started 3.5 min after patch excision to minimize channel run down during the measurement[14],[27],[70]. The solutions with the ligand concentrations to be tested were applied via a multi-barrel device to the patches with a flow rate of 0.8 to 1.2 ml/min.
(§5) I is the actual current amplitude and Imax the maximum current amplitude at a saturating cNMP concentration specified for each cNMP and channel. EC50 is the cNMP concentration generating the half maximum current and H the Hill coefficient.

Assay [2] addresses T2, heterotetrameric CNGA2:CNGA4:CNGB1b channels (Rattus norvegicus, UniProt A0A8I5ZN27+Q00195+Q64359).
T2 construct: expressed in transfected cells; host or cells: Xenopus laevis oocytes co-injected with cRNAs (2:1:1); inside-out patches
The experiment in a line: Concentration-activation relationship of heterotetrameric CNGA2:CNGA4:CNGB1b channels, inside-out patches of Xenopus oocytes. The class given is cell-based. The protocol: as §1, §2, §3, §4, §5

[3] abbreviates: homotetrameric CNGA2 channels, late current at +10 mV, mean.
The mark [4] stands for this setting: homotetrameric CNGA2 channels, mean.
The mark [5] stands for this setting: heterotetrameric CNGA2:CNGA4:CNGB1b channels, late current at +10 mV, mean.
[6] abbreviates: heterotetrameric CNGA2:CNGA4:CNGB1b channels, mean.
[7] abbreviates: CNGA2 channels, numeric mean values of box plots (Fig. 2a,b, Fig. 3) and text.
The mark [8] stands for this setting: fit of the concentration-activation relationship shown in Fig. 1b, CNGA2 channels.
Where [9] appears, read: fit of the concentration-activation relationship shown in Fig. 1c, CNGA2:CNGA4:CNGB1b channels.

T2 sequence (Q64359 whole entry, one chain of several): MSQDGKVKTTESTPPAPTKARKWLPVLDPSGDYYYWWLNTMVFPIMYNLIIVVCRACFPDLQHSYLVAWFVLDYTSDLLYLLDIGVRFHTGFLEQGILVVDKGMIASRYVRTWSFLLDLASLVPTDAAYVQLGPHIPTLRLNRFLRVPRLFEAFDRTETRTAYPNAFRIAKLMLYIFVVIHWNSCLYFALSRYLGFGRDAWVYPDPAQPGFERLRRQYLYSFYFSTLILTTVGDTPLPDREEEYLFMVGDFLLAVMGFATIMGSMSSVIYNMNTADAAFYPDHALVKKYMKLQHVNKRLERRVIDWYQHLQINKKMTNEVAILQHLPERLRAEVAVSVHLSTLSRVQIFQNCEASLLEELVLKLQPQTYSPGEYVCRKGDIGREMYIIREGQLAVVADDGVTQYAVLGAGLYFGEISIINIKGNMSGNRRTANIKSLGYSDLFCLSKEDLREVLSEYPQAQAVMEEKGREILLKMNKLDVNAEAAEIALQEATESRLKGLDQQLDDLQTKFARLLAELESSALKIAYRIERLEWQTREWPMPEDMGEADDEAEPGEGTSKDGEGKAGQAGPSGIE
T2 sequence (A0A8I5ZN27 1-858 isoform A0A8I5ZN27-2, one chain of several): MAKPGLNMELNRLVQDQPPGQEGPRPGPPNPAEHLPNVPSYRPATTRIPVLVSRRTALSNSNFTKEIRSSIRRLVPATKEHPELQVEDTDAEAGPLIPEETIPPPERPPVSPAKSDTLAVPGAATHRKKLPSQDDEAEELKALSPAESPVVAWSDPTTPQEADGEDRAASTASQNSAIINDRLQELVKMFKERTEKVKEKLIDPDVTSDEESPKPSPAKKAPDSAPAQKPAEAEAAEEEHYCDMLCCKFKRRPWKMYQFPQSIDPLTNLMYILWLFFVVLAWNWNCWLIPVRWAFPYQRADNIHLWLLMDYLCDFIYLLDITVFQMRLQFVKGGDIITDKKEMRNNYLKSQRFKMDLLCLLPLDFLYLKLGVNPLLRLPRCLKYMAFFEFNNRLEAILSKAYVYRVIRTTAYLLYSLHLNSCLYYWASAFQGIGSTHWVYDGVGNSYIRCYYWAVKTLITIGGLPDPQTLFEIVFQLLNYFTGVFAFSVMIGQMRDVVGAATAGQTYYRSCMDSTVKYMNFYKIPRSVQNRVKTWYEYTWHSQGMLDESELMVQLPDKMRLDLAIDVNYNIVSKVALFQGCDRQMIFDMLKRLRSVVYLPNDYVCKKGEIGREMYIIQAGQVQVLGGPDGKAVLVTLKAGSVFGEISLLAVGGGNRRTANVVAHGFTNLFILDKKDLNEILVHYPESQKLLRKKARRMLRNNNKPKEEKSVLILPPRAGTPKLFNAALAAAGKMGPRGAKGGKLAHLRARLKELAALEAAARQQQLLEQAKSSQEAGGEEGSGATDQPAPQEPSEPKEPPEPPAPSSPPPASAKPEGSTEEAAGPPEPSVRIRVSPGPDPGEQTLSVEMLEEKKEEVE

The term EC50 denotes the concentration needed to bring the measured effect to its halfway point. Low values mean greater potency, high ones weaker potency. Take `NCCCCCCCCCCSc1nc2c(N)ncnc2n1C1OC2COP(=O)(O)OC2C1O` (stereo not drawn) [6A, 8-ADT-cAMP]: the EC50 was determined as 0.63 µM in assay [1] (setting [3]) and 0.29 µM in assay [2] (setting [5]). In addition, the “H (Hill coefficient)” value in assay [1] (setting [4]) is 2.3; in assay [2] (setting [6]) it was 3.9. Moreover, in assay [2] (CNGA2:CNGA4:CNGB1b channels, at concentrations > 2 µM), the “effect at high concentration” value was “unusual inhibition”.

Regarding `CC(=O)NCCSc1nc2c(=O)[nH]c(N)nc2n1C1OC2COP(=O)(O)OC2C1O` (stereo not drawn) [3G, 8-(Ac)AET-cGMP], the concentration for a half-maximal effect (EC50) in assay [1] (setting [7]) is 0.17 µM; in assay [2] (setting [5]), 0.28 µM. Besides, the “H (Hill coefficient)” value in assay [1] (setting [4]) is listed as 1.8; in assay [2] (setting [6]), 2.0.

Consider `CC(=O)NCCOCCOCCSc1nc2c(=O)[nH]c(N)nc2n1C1OC2COP(=O)(O)OC2C1O` (stereo not drawn) [8G, 8-(Ac)APT-cGMP], for which the results for the 50% effective concentration (EC50) in assay [1] (setting [3]) and in assay [2] (setting [5]) were 0.55 µM and 1.1 µM, respectively. Moreover, the “H (Hill coefficient)” value in assay [1] (setting [4]) came to 2.7; in assay [2] (setting [6]), 1.6.

For `NCCSc1nc2c(=O)[nH]c(N)nc2n1C1OC2COP(=O)(O)OC2C1O` (stereo not drawn) [2G, 8-AET-cGMP], the EC50 is 0.83 µM in assay [1] (setting [7]) and 1.5 µM in assay [2] (setting [5]). For the same compound, the entries for the “H (Hill coefficient)” value in assay [1] (setting [4]) and in assay [2] (setting [6]) were 2.4 and 1.8, respectively.

On to `NCCCCCCSc1nc2c(N)ncnc2n1C1OC2COP(=O)(O)OC2C1O` (stereo not drawn) [4A, 8-AHT-cAMP], for which the EC50 in assay [1] (setting [3]) came to 3.1 µM; in assay [2] (setting [5]) it was 1.4 µM. In addition, the “H (Hill coefficient)” value was determined as 2.3 in assay [1] (setting [4]) and 2.5 in assay [2] (setting [6]).

Regarding `NCCSc1nc2c(N)ncnc2n1C1OC2COP(=O)(O)OC2C1O` (stereo not drawn) [2A, 8-AET-cAMP], the agonist type entry in assay [1] (CNGA2 channels) is listed as “partial agonist”. The half-maximal effective concentration (EC50) in assay [1] (setting [7]) was found to be 128 µM; in assay [2] (setting [5]), 13.3 µM. For the same compound, the “H (Hill coefficient)” value in assay [1] (setting [4]) is recorded as 1.8.

`Nc1nc2c(ncn2C2OC3COP(=O)(O)OC3C2O)c(=O)[nH]1` (stereo not drawn) [1G, cGMP, reference compound]: the EC50 in assay [1] (setting [8]) was 1.47 µM; in assay [1] (setting [3]) it was 1.8 µM; in assay [2] (setting [9]), 1.24 µM; in assay [2] (setting [5]), 1.3 µM. The H turned out to be 2.52 in assay [1] (setting [8]) and 2.09 in assay [2] (setting [9]). The “H (Hill coefficient)” value was 2.6 in assay [1] (setting [4]) and 2.5 in assay [2] (setting [6]).

Consider `NCCCCCCSc1nc2c(=O)[nH]c(N)nc2n1C1OC2COP(=O)(O)OC2C1O` (stereo not drawn) [4G, 8-AHT-cGMP], for which the EC50 is 0.09 µM in assay [1] (setting [3]) and 0.62 µM in assay [2] (setting [5]). The figures for the “H (Hill coefficient)” value in assay [1] (setting [4]) and in assay [2] (setting [6]) were 2.5 and 1.3, respectively.

As for `CC(=O)NCC(=O)NCCSc1nc2c(=O)[nH]c(N)nc2n1C1OC2COP(=O)(O)OC2C1O` (stereo not drawn) [10G, 8-(Ac)AGET-cGMP], the EC50 was 0.34 µM in assay [1] (setting [3]) and 0.63 µM in assay [2] (setting [5]). Moreover, the “H (Hill coefficient)” value in assay [1] (setting [4]) is given as 2.6; in assay [2] (setting [6]), 1.9.

For `CC(=O)NCCOCCOCCC(=O)NCCSc1nc2c(N)ncnc2n1C1OC2COP(=O)(O)OC2C1O` (stereo not drawn) [9A, 8-(Ac)APET-cAMP], the EC50 in assay [1] (setting [3]) stood at 46.2 µM; in assay [2] (setting [5]) it was 7.1 µM. Further, the “H (Hill coefficient)” value in assay [1] (setting [4]) is on record as 2.3; in assay [2] (setting [6]), 2.2.

In the case of `CC(=O)NCC(=O)NCC(=O)NCCSc1nc2c(=O)[nH]c(N)nc2n1C1OC2COP(=O)(O)OC2C1O` (stereo not drawn) [11G, 8-(Ac)AGGET-cGMP], the 50% effective concentration (EC50) in assay [1] (setting [3]) is 0.33 µM; in assay [2] (setting [5]), 1 µM. In addition, the “H (Hill coefficient)” value in assay [1] (setting [4]) is reported as 2.4; in assay [2] (setting [6]), 1.7.

Consider `CC(=O)NCCOCCOCCC(=O)NCCSc1nc2c(=O)[nH]c(N)nc2n1C1OC2COP(=O)(O)OC2C1O` (stereo not drawn) [9G, 8-(Ac)APET-cGMP], for which the figures for the concentration for a half-maximal effect (EC50) in assay [1] (setting [3]) and in assay [2] (setting [5]) were 0.52 µM and 1.1 µM, respectively. Besides, the “H (Hill coefficient)” value in assay [1] (setting [4]) is 2.3; in assay [2] (setting [6]), 2.0.

For the compound `NCCCCCCCCCCSc1nc2c(=O)[nH]c(N)nc2n1C1OC2COP(=O)(O)OC2C1O` (stereo not drawn) [6G, 8-ADT-cGMP], the EC50 in assay [1] (setting [3]) is 0.06 µM; in assay [2] (setting [5]) it was 0.3 µM. The “H (Hill coefficient)” value in assay [1] (setting [4]) came out at 1.8; in assay [2] (setting [6]), 1.6.

Take `CC(=O)NCCCCCCCCCCSc1nc2c(=O)[nH]c(N)nc2n1C1OC2COP(=O)(O)OC2C1O` (stereo not drawn) [7G, 8-(Ac)ADT-cGMP]: the half-maximal effective concentration (EC50) came to 0.05 µM in assay [1] (setting [3]) and 0.14 µM in assay [2] (setting [5]). The “H (Hill coefficient)” value in assay [1] (setting [4]) was found to be 2.2; in assay [2] (setting [6]), 1.9.

Turning to `CC(=O)NCC(=O)NCC(=O)NCCSc1nc2c(N)ncnc2n1C1OC2COP(=O)(O)OC2C1O` (stereo not drawn) [11A, 8-(Ac)AGGET-cAMP], the EC50 is 29.4 µM in assay [1] (setting [7]), 29.4 µM in assay [1] (setting [3]) and 5.1 µM in assay [2] (setting [5]). The “H (Hill coefficient)” value in assay [1] (setting [4]) was determined as 1.9; in assay [2] (setting [6]), 2.5.
